Tests used:
[1] = system: Staphylococcus aureus ATCC 6538; experiment: Real-time viability assay, uptake of the phototautomeric compound followed by fluorescence; type: cell-based; conditions: for uptake by bacteria: 50 μM compound in 100 mM potassium phosphate buffer pH 2 (FIG. 6); for rise in fluorescence after addition of the compound, viable vs nonviable cells: 50 μM compound, 100 mM potassium phosphate buffer pH 2, added at t=20 seconds
Description: (§1) A solution of 100 μl containing 50 μM compound in 100 mM potassium phosphate buffer pH 7 is used for recording the excitation and emission wavelengths in a Tecan microplate fluorometer. The ratio of emission intensity at pH 7.5 and 1 as well as the ratio of emission intensity at pH 7 and 2 (indicated by the asterisk) was recorded with 100 μl solution containing 50 μM compound in 100 mM potassium phosphate buffer pH 2 or 7 in a Tecan microplate fluorometer at optimal excitation wavelength. Uptake of compounds by viable and nonviable (heat-inactivated for 5 minutes at 95° C.) Staphylococcus aureus ATCC 6538 and Sachromyces serervisiae ATCC 9763 cells is real-time monitored in a Tecan microplate fluorometer at optimal excitation and emission wavelengths. A solution of 50 μM compound in 100 mM potassium phosphate buffer pH2 was added to 100 μl cell suspensions at t=20 seconds, uptake of compound was monitored for 180 seconds.
(§2) A solution of 100 μl containing 50 μM o-hydroxycinnamic acid, 100 mM potassium phosphate buffer pH 2, was added at t=20 seconds, as indicated by the arrow.
(§3) Typical real-time viability assay. Staphylococcus aureus strain ATCC 6538 is cultured overnight at 100 RPM at 37° C. in 10-ml of a rich trypticase soy broth (TSB) medium. A culture volume of 5 ml is centrifuged at 2000 RPM for 10 min and resuspended in 2 ml of physiological salt solution (peptone, 0.9% NaCl) followed by an OD600 measurement. A culture suspension of 1 ml is heat-inactivated by incubation at 95° C. for 5 min. (nonviable control cell suspension). A volume of 100 μl of a viable and a nonviable cell suspension is pipetted in separate wells of a polystyrene 96-well, flat-bottom microtiter plate. Subsequently, fluorescence emission kinetics (excitation wavelength 290 nm; emission wavelength 402 nm) are monitored for 500 seconds with a time interval of 200 ms, number of reads 5. […] Hereafter, the fluorescence signal decays on a minute time-scale as a result of the loss of membrane integrity or cell viability. […] From 60.2 seconds the signal will remain constant as the membrane is permeable in nonviable cells allowing quenching of fluorescence by acidification of the intracellular environment.

[2] = system: Saccharomyces cerevisiae ATCC 9763; experiment: as above; type: cell-based; conditions: for uptake by yeast: 50 μM compound in 100 mM potassium phosphate buffer pH 2 (FIG. 6)
Description: as §1, §2
Real-time viability assay for various micro-organisms. Bacterial and yeast strains were cultured overnight at 37° C. at 100 RPM in 10-ml of a rich trypticase soy broth (TSB) medium. A culture volume of 5 ml is centrifuged at 2000 RPM for 10 min and resuspended in 2 ml of physiological salt solution (peptone, 0.9% NaCl) followed by an OD600 measurement. The yeast strains include Candida albicans ATCC 10231, Saccharomyces cereuisiae ATCC9763 and the bacterial strains include A Staphylococcus aureus strain ATCC 6538, Enterobacter cloacae LMG 2783, Escherichia coli ATCC 10536, Bacillus subtilis DSM618 and Pseudomonas aeruginosa ATCC27853. The assay is carried out as specified above for Staphylococcus aureus. […] Accordingly, quantification of the number of viable cells of the yeast and other fungal strains should occur on the basis of increase of fluorescence over the measured period of time.

[3] = system: yeast (and other fungal) strains: Candida albicans ATCC 10231, Saccharomyces cereuisiae ATCC9763; experiment: Real-time viability assay for various micro-organisms (yeast strains); type: cell-based, Saccharomyces cerevisiae; conditions: 100 mM potassium phosphate buffer pH 2
Description: as §3, with “environment. Real-time viability assay for various micro-organisms. Bacterial and yeast strains were cultured overnight at 37° C. at 100 RPM in 10-ml of a rich trypticase soy broth (TSB) medium. A culture volume of 5 ml is centrifuged at 2000 RPM for 10 min and resuspended in 2 ml of physiological salt solution (peptone, 0.9% NaCl) followed by an OD600 measurement. The yeast strains include Candida albicans ATCC 10231, Saccharomyces cereuisiae ATCC9763 and the bacterial strains include A Staphylococcus aureus strain ATCC 6538, Enterobacter cloacae LMG 2783, Escherichia coli ATCC 10536, Bacillus subtilis DSM618 and Pseudomonas aeruginosa ATCC27853. The assay is carried out as specified above for Staphylococcus aureus. […] Accordingly, quantification of the number of viable cells of the yeast and other fungal strains should occur on the basis of increase of fluorescence over the measured period of time.” for “environment.”

[4] = system: Saccharomyces cerevisiae ATCC 9763; experiment: Real-time viability assay, uptake of the phototautomeric compound followed by fluorescence; type: cell-based; conditions: 2 mM salicylic acid, pH 2

Compound: O=C(O)c1ccc2ccccc2c1O [1H-2NA, 1-hydroxy-2-naphtoic acid]
- uptake by bacteria [1]: taken up by both bacteria and yeast
- uptake by yeast [2]: taken up by both bacteria and yeast
- accumulation of the compound by yeast (and other fungal) strains [3]: relatively slowly
- decay of fluorescent signal in yeast (and other fungal) strains [3]: no decay of fluorescent signal

Compound: O=C(O)c1cc(O)ccc1O [gentisic acid, 2,5-dihydroxybenzoic acid]
- rise in fluorescence after addition of the compound, viable vs nonviable cells [1]: only observed for viable Staphylococcus aureus cells

Compound: Nc1ccc(O)c(C(=O)O)c1 [5-amino salicylic acid]
- uptake by yeast [2]: hardly taken up by yeast

Compound: O=C(O)c1cc2oc3ccccc3c2cc1O [S350729]
- uptake by bacteria [1]: taken up by both bacteria and yeast
- uptake by yeast [2]: taken up by both bacteria and yeast

Compound: Nc1ccc(C(=O)O)c(O)c1 [4-amino salicylic acid]
- uptake by yeast [2]: hardly taken up by yeast

Compound: O=C(O)c1ccc(O)cc1O [4-hydroxy salicylic acid]
- uptake by yeast [2]: hardly taken up by yeast

Compound: O=C(O)c1c(O)ccc2ccccc12 [2H-1NA, 2-hydroxy-1-naphtoic acid]
- accumulation of the compound by yeast (and other fungal) strains [3]: relatively slowly
- decay of fluorescent signal in yeast (and other fungal) strains [3]: no decay of fluorescent signal

Compound: Cn1c(=O)n(C)c2cc(C(=O)O)c(N)cc21 [6-amino-1,3-dimethyl-2-oxo-2,3-dihydro-1H-benzoimidazole-5-carboxylic acid]
- rise in fluorescence after addition of the compound, viable vs nonviable cells ([2]; 50 μM compound, 100 mM potassium phosphate buffer pH 2, added at t=20 seconds): only observed for viable Saccharomyces cereuisiae cells

Compound: O=C(O)C=Cc1ccccc1O [o-hydroxycinnamic acid]
- rise in fluorescence after addition of the compound, viable vs nonviable cells [1]: only observed for viable Staphylococcus aureus cells
- uptake by yeast [2]: hardly taken up by yeast

Compound: Nc1cc2ccccc2cc1C(=O)O [3-amino-2-napthoic acid]
- uptake by bacteria [1]: taken up by both bacteria and yeast
- uptake by yeast [2]: taken up by both bacteria and yeast

Compound: O=C(O)c1ccccc1O [salicylic acid]
- uptake by bacteria [1]: taken up by both bacteria and yeast
- time constant of the acidification process ([1]; 2 mM salicylic acid, 100 mM potassium phosphate buffer pH 2): 0.005 s⁻¹
- time scale of the rapid rise in fluorescence (transfer from the extracellular to the intracellular medium) ([1]; 100 μl of 2 mM salicylic acid, 100 mM potassium phosphate buffer pH 2, injected at 60 seconds): < 200 ms
- uptake of salicylic acid by the bacteria (time) ([1]; stationary culture, 2 mM salicylic acid, 100 mM potassium phosphate buffer pH 2): within seconds
- uptake by yeast [2]: taken up by both bacteria and yeast
- accumulation of the compound by yeast (and other fungal) strains [3]: relatively slowly
- decay of fluorescent signal in yeast (and other fungal) strains [3]: no decay of fluorescent signal
- permeability of the cell membrane to the compound, compared with bacteria [4]: less-permeable

Source: patent US8986946B2, “Real-time method for the detection of viable micro-organisms” (Nederlandse Organisatie Voor …, priority 2007, dated 2015)
